From US11814367B2, “Inhibitors of glycogen synthase 1 (GYS1) and methods of use thereof” (Maze Therapeutics, Inc., priority 2021, dated 2023)

Tests used:
[1] = target: hGYS2 enzyme (recombinant hGYS2/GN1 protein) (Homo sapiens (Human), UniProt P54840); test: GYS2 coupled enzyme assay (PK/LDH); type: biochemical; conditions: geometric mean of at least 2 assay runs on separate days, read-out: Avg_IC50
Procedure, shortened: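 Recombinant hGYS2/GN1 (200 nM) with 2 mM UDP-glucose, 0.2% rabbit liver glycogen, 2 mM glucose-6-phosphate; UDP coupled via PK/LDH (2 mM PEP, 0.6 mM NADH). Buffer 50 mM Tris pH 7.5, 2 mM MgCl2, 100 mM KCl, 2.5% DMSO. A340 slope over 10 min; IC50 from Hill fit of duplicates.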

[2] = system: hGYS1 enzyme / glycogen synthesis in HeLa cells; test: GYS1 cell based assay (glycogen synthesis, Glucose-glo); parameters: species or system human; conditions: 24 h incubation, 20 mM glucose, geometric mean of at least 2 runs
Procedure, shortened: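 HeLa cells starved 24 h in medium containing only 1× Glutamax were plated onto compound in medium with 20 mM glucose (1% DMSO final) for 24 h, 37 °C, 5% CO2. Acid lysates were Tris-quenched, glucoamylase-digested (pH 5.3, 1 h, 37 °C) and read by Glucose-glo luminescence. IC50 came from Hill fits, as geometric mean of ≥2 runs.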

[3] = target: hGYS1 enzyme (recombinant hGYS1/GN1 protein) (Homo sapiens (Human), UniProt P13807); test: GYS1 coupled enzyme assay (PK/LDH); type: biochemical; conditions: hGYS1/GN1 50 nM, UDP-Glucose 0.8 mM, G6P 1 mM; geometric mean of at least 2 runs
hGYS1 enzyme (recombinant hGYS1/GN1 protein), sequence (P13807 whole entry): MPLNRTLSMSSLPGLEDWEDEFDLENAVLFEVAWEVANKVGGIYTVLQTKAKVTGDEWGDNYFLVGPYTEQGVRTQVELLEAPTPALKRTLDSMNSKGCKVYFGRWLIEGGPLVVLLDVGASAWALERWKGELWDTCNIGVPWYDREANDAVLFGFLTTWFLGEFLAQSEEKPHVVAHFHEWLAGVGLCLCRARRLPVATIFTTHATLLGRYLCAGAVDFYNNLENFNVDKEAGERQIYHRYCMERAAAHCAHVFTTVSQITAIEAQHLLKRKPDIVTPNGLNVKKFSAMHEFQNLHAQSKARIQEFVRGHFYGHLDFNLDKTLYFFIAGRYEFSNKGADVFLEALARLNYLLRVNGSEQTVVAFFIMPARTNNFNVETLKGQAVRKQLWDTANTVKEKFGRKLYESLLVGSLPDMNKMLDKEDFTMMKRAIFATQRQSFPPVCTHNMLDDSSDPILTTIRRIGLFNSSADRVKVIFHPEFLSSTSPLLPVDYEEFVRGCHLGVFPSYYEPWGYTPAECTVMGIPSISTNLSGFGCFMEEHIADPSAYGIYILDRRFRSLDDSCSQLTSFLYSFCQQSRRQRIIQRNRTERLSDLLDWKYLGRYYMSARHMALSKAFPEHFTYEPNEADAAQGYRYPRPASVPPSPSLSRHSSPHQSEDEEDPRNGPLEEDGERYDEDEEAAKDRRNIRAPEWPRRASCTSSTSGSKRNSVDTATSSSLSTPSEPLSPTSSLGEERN
hGYS1 enzyme (recombinant hGYS1/GN1 protein), sequence (P46976 whole entry partner): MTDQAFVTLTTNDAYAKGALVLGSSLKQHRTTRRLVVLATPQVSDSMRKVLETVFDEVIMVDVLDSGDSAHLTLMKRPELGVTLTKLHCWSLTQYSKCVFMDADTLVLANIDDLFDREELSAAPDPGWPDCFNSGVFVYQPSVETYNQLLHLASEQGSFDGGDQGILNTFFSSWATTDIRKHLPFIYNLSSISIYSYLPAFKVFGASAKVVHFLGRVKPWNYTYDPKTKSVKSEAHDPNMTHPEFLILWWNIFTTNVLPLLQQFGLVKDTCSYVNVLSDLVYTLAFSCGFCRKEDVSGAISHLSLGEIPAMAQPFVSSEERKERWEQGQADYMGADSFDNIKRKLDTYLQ

hGYS2 enzyme (recombinant hGYS2/GN1 protein), sequence (P54840 whole entry): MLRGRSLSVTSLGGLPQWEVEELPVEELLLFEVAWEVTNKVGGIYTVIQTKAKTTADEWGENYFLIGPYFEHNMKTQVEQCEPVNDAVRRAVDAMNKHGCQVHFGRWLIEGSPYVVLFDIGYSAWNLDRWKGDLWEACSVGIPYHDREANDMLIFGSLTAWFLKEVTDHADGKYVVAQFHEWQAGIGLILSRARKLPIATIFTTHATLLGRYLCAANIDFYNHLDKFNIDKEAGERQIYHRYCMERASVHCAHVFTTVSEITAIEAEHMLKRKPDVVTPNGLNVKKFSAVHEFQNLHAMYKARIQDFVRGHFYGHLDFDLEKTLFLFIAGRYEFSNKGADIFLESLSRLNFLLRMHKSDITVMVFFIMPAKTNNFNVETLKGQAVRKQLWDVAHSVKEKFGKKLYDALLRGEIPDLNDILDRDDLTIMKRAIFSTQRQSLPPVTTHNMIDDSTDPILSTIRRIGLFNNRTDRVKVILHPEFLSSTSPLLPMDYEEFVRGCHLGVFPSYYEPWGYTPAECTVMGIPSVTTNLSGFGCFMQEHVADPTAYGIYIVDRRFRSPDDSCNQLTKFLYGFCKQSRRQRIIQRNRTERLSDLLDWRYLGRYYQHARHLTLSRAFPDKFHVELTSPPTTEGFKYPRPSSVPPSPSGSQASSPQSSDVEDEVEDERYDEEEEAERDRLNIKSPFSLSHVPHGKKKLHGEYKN
hGYS2 enzyme (recombinant hGYS2/GN1 protein), sequence (P46976 whole entry partner): as the sequence (P46976 whole entry partner) above

Row | Structure (SMILES) | IC50 [1] [nM] | IC50 ([2]; Homo sapiens, HeLa, 24 h) [nM] | IC50 [3] [nM] | IC50 [2] [nM]
1 | CC(C)c1ccc([C@@H](NC(=O)[C@@H]2C[C@@H](F)CN2C(=O)[C@@H]2CNC(=O)O2)c2ccccc2)cc1F [Compound 381, (2S,4R)-4-fluoro-N-[(S)-[3-fluoro-4-(propan-2-yl)phenyl](phenyl)methyl]-1-[(5S)-2-oxo-1,3-oxazolidine-5-carbonyl]pyrrolidine-2-carboxamide] | > 100000 | 440 | 58 | –
2 | CN1C(=O)C(CC(=O)N2C[C@H](F)C[C@H]2C(=O)N[C@@H](c2ccccc2)c2ccc(C3(C)CC3)c(F)c2)c2ccccc21 (stereo partly drawn) [Compound 577, (2S,4R)-4-fluoro-N-[(S)-[3-fluoro-4-(1-methylcyclopropyl)phenyl](phenyl)methyl]-1-[2-(1-methyl-2-oxo-2,3-dihydro-1H-indol-3-yl)acetyl]pyrrolidine-2-carboxamide] | 41200 | 3980 | 478 | –
3 | Cc1cc(CC(=O)N2C[C@H](F)C[C@H]2C(=O)N[C@@H](c2ccccc2)c2ccc(C3CC(F)(F)C3)c(F)n2)c[nH]c1=O [Compound 522, (2S,4R)-N-[(S)-[5-(3,3-difluorocyclobutyl)-6-fluoropyridin-2-yl](phenyl)methyl]-4-fluoro-1-[2-(5-methyl-6-oxo-1,6-dihydropyridin-3-yl)acetyl]pyrrolidine-2-carboxamide] | > 100000 | 450 | 5 | –
4 | O=C(N[C@@H](c1ccccc1)c1ccc(C2CC2)c(F)c1)[C@@H]1C[C@@H](F)CN1C(=O)CNc1cnccn1 [Compound 471, (2S,4R)-N-[(S)-(4-cyclopropyl-3-fluorophenyl)(phenyl)methyl]-4-fluoro-1-{2-[(pyrazin-2-yl)amino]acetyl}pyrrolidine-2-carboxamide] | > 100000 | 700 | 29 | –
5 | CC(C)c1ccc([C@@H](NC(=O)[C@@H]2C[C@@H](F)CN2C(=O)CNC(=O)N2CCN(CC(F)(F)F)CC2)c2ccccc2)nc1 [Compound 281, N-{2-[(2S,4R)-4-fluoro-2-{[(S)-phenyl[5-(propan-2-yl)pyridin-2-yl]methyl]carbamoyl}pyrrolidin-1-yl]-2-oxoethyl}-4-(2,2,2-trifluoroethyl)piperazine-1-carboxamide] | > 100000 | 1560 | 59 | –
6 | CC(C)c1ccc([C@@H](NC(=O)[C@@H]2C[C@@H](F)CN2C(=O)Cc2cnn[nH]2)c2ccccc2)nc1 [Compound 244, (2S,4R)-1-(2-(1H-1,2,3-triazol-5-yl)acetyl)-4-fluoro-N-((S)-(5-isopropylpyridin-2-yl)(phenyl)methyl)pyrrolidine-2-carboxamide] | > 100000 | 1800 | 77 | –
7 | Cn1c(CC(=O)N2C[C@H](F)C[C@H]2C(=O)N[C@@H](c2ccccc2)c2ccc(C3CC3)c(F)n2)n[nH]c1=O [Compound 304, (2S,4R)-N-[(S)-(5-cyclopropyl-6-fluoropyridin-2-yl)(phenyl)methyl]-4-fluoro-1-[2-(4-methyl-5-oxo-4,5-dihydro-1H-1,2,4-triazol-3-yl)acetyl]pyrrolidine-2-carboxamide] | > 100000 | 2330 | 73 | –
8 | CC1(c2ccc([C@@H](NC(=O)[C@@H]3C[C@@H](F)CN3C(=O)CN3CCN(C(=O)OCC(F)(F)F)CC3=O)c3ccccc3)cc2F)CC1 [Compound 578, 2,2,2-trifluoroethyl 4-{2-[(2S,4R)-4-fluoro-2-{[(S)-[3-fluoro-4-(1-methylcyclopropyl)phenyl](phenyl)methyl]carbamoyl}pyrrolidin-1-yl]-2-oxoethyl}-3-oxopiperazine-1-carboxylate] | 79300 | 6660 | 613 | –
9 | O=C(N[C@@H](c1ccccc1)c1ccc(C2CC(F)(F)C2)cn1)[C@@H]1C[C@@H](F)CN1C(=O)CNC(=O)N1CCC1 [Compound 533, (2S,4R)-1-{2-[(azetidine-1-carbonyl)amino]acetyl}-N-[(S)-[5-(3,3-difluorocyclobutyl)pyridin-2-yl](phenyl)methyl]-4-fluoropyrrolidine-2-carboxamide] | > 100000 | 1210 | 43 | –
10 | CN(C)c1cnnn1CC(=O)N1C[C@H](F)C[C@H]1C(=O)N[C@@H](c1ccccc1)c1ccc(C2CC2)c(F)n1 [Compound 298, (2S,4R)-N-[(S)-(5-cyclopropyl-6-fluoropyridin-2-yl)(phenyl)methyl]-1-{2-[5-(dimethylamino)-1H-1,2,3-triazol-1-yl]acetyl}-4-fluoropyrrolidine-2-carboxamide] | > 100000 | 260 | 12 | –
11 | Cc1cn(CC(=O)N2C[C@H](F)C[C@H]2C(=O)N[C@@H](c2ccccc2)c2ccc(C3CC3)c(F)c2)c(=O)[nH]c1=O [Compound 442, (2S,4R)-N-[(S)-(4-cyclopropyl-3-fluorophenyl)(phenyl)methyl]-4-fluoro-1-[2-(5-methyl-2,4-dioxo-1,2,3,4-tetrahydropyrimidin-1-yl)acetyl]pyrrolidine-2-carboxamide] | > 100000 | 860 | 23 | –
12 | CC(C)c1ccc([C@@H](NC(=O)[C@@H]2C[C@@H](F)CN2C(=O)C(C)n2ccnc2)c2ccccc2)cc1F (single isomer, unassigned) [Compound 768, (2S,4R)-4-fluoro-N-[(S)-[3-fluoro-4-(propan-2-yl)phenyl](phenyl)methyl]-1-[(2R) or (2S)-2-(1H-imidazol-1-yl)propanoyl]pyrrolidine-2-carboxamide] | > 100000 | – | 121 | 1230
13 | Cc1nc(C(NC(=O)[C@@H]2C[C@@H](F)CN2C(=O)Cc2cnn[nH]2)c2ccccc2)ccc1C(C)C (single isomer, unassigned) [Compound 607, (2S,4R)-4-fluoro-N-[(S) or (R)-[6-methyl-5-(propan-2-yl)pyridin-2-yl](phenyl)methyl]-1-[2-(1H-1,2,3-triazol-5-yl)acetyl]pyrrolidine-2-carboxamide] | > 100000 | 3290 | 333 | –
14 | CC(C)c1ccc([C@@H](NC(=O)[C@@H]2C[C@@H](F)CN2C(=O)CN2CCOCC2=O)c2ccccc2)cc1 [Compound 219, (2S,4R)-4-fluoro-1-[2-(3-oxomorpholin-4-yl)acethyl]-N-[(S)-phenyl[4-(propan-2-yl)phenyl]methyl]pyrrolidine-2-carboxamide] | > 100000 | 1410 | 101 | –
15 | C[C@H](NC(=O)N(C)C)C(=O)N1C[C@H](F)C[C@H]1C(=O)N[C@@H](c1ccccc1)c1ccc(C2CC2)c(F)n1 [Compound 310, (2S,4R)-N-[(S)-(5-cyclopropyl-6-fluoropyridin-2-yl)(phenyl)methyl]-1-[(2S)-2-[(dimethylcarbamoyl)amino]propanoyl]-4-fluoropyrrolidine-2-carboxamide] | > 100000 | 1290 | 75 | –
16 | CC(C)c1ccc([C@@H](NC(=O)[C@@H]2C[C@@H](F)CN2C(=O)Cc2cnc3ccccn23)c2ccccc2)cc1F [Compound 356, (2S,4R)-4-fluoro-N-[(S)-[3-fluoro-4-(propan-2-yl)phenyl](phenyl)methyl]-1-(2-{imidazo[1,2-a]pyridin-3-yl}acetyl)pyrrolidine-2-carboxamide] | > 100000 | 190 | 13 | –
17 | CC(C)c1ccc([C@@H](NC(=O)[C@@H]2C[C@@H](F)CN2C(=O)Cc2cnn[nH]2)c2ccccc2)cc1C(F)F [Compound 679, (2S,4R)-N-[(S)-[3-(difluoromethyl)-4-(propan-2-yl)phenyl](phenyl)methyl]-4-fluoro-1-[2-(1H-1,2,3-triazol-5-yl)acetyl]pyrrolidine-2-carboxamide] | > 100000 | 8490 | 577 | –
18 | CC(C(=O)N1C[C@H](F)C[C@H]1C(=O)N[C@@H](c1ccccc1)c1ccc(C2(C)CC2)c(F)n1)n1cnc2ccccc21 (single isomer, unassigned) [Compound 587, (2S,4R)-1-((R) or (S)-2-(1H-benzo[d]imidazol-1-yl)propanoyl)-4-fluoro-N—((S)-(6-fluoro-5-(1-methylcyclopropyl)pyridin-2-yl)(phenyl)methyl)pyrrolidine-2-carboxamide] | > 100000 | – | 109 | 2390
19 | CC(C)c1ccc([C@@H](NC(=O)[C@@H]2C[C@@H](F)CN2C(=O)[C@@H](C)NC(=O)N(C)C)c2ccccc2)nc1 [Compound 274, (2S,4R)-1-[(2R)-2-[(dimethylcarbamoyl)amino]propanoyl]-4-fluoro-N-[(S)-phenyl[5-(propan-2-yl)pyridin-2-yl]methyl]pyrrolidine-2-carboxamide] | > 100000 | 3230 | 264 | –
20 | CCC(C)c1ccc(C(NC(=O)[C@@H]2C[C@@H](F)CN2C(=O)Cc2cnn[nH]2)c2ccccc2)cc1F (single isomer, unassigned) [Compound 676, (2S,4R)-N-[(R) or (S)-{4-[(2R) or (2S)-butan-2-yl]-3-fluorophenyl}(phenyl)methyl]-4-fluoro-1-[2-(1H-1,2,3-triazol-5-yl)acetyl]pyrrolidine-2-carboxamide] | > 100000 | – | 554 | 14000
